Source: US20230140983A1, “PYRIDAZINE DERIVATIVES FOR MODULATING NUCLEIC ACID SPLICING” (REMIX THERAPEUTICS INC., priority 2020, published 2023)
Read-outs that look alike come from different tables or passages of the source.

Key:
Format in all cases: cell-based
[1] = system: HTT; assay: Splicing assay (RT-qPCR on cell lysates) monitoring HTT splice variants: AJ and CJ mRNA; conditions: Table 8, concentration having 50% response
How it was run: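 Cell lysates were analysed by RT-qPCR, with ΔCt taken against a housekeeping gene and normalised to DMSO to give RQ by 2^(−ΔΔCt). Assay windows were set at 9 ΔCt for AJ and 3.5 ΔCt for CJ, and 4-parameter fits gave AC50 for the AJ increase and IC50 for the CJ decrease.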

[2] = system: HTT; assay: Gene panel canonical junction qPCR assay, HTT CJ mRNA; conditions: Table 9, CJ mRNA decrease, read-out: HTT IC50 (decrease in CJ mRNA levels)
Method: (§1) To set up 10 uL RT-qPCR reactions, cell lysates were transferred to 384-well qPCR plates containing the master mix according to the table below. The plates were sealed, gently vortexed, and spun down before the run. The volumes were adjusted accordingly in some instances where the reaction was carried in 20 uL. The table below summarizes the components of the RT-qPCR reactions:
(§2) The RT-qPCR reaction was performed using a QuantStudio (ThermoFisher) under the following fast cycling conditions. All samples and standards were analyzed at least in duplicate. In some instances, bulk room temperature (RT) step of 5-10 minutes was completed for all plates before proceeding with qPCR. The table below summarizes the PCR cycle:
(§3) The data analysis was performed by first determining the ΔCt vs the housekeeper gene. This ΔCt was then normalized against the DMSO control (ΔΔCt) and converted to RQ (relative quantification) using the 2^(−ΔΔCt) equation. The RQ were then converted to a percentage response by arbitrarily setting an assay window of 3.5 ΔCt for HTT-CJ and an assay window of 9 ΔCt for HTT-AJ. […] The percentage response was then fitted to the 4 parametric logistic equation to evaluate the concentration dependence of compound treatment. The increase in AJ mRNA is reported as AC50 (compound concentration having 50% response in AJ increase) while the decrease in CJ mRNA levels is reported as IC50 (compound concentration having 50% response in CJ decrease).
(§4) Additional studies were carried out for a larger panel of genes using the protocol provided above. The junction between flanking upstream and downstream exons was used to design canonical junction qPCR assays. At least one of the forward primer, reverse primer or the CY5-labeled 5′ nuclease probe (with 3′ quencher such as ZEN/Iowa Black FQ) was designed to overlap with the exon junction to capture the CJ mRNA transcript. BLAST was used to confirm the specificity of the probeset and parameters such as melting temperature, GC content, amplicon size, and primer dimer formation are considered during their design. Data for the decrease in CJ mRNA levels for three exemplary genes (HTT, SMN2, and Target C) analyzed in this panel are reported as IC50 (compound concentration having 50% response in CJ decrease).

[3] = system: SMN2; assay: Gene panel canonical junction qPCR assay, SMN2 CJ mRNA; conditions: Table 9, CJ mRNA decrease, read-out: SMN2 IC50 (decrease in CJ mRNA levels)
Method: as §1, §2, §3, §4

[4] = system: Target C; assay: Gene panel canonical junction qPCR assay, Target C CJ mRNA; conditions: Table 9, CJ mRNA decrease, read-out: Target C IC50 (decrease in CJ mRNA levels)
Method: as §1, §2, §3, §4

[5] = decrease in CJ mRNA, read-out: HTT CJ AC50
[6] = increase in AJ mRNA, read-out: HTT AJ AC50

Structure (SMILES)	AC50 [1, 5]	AC50 [1, 6]	IC50 [2]	IC50 [3]	IC50 [4]
Fc1cc(-c2ccc(O[C@@H]3C[C@H]4CC[C@@H](C3)N4)nn2)c2[nH]ncc2c1-c1cn[nH]c1 [Compound 216, 7-[6-[(exo)-8-azabicyclo[3.2.1]octan-3-yloxy]pyridazin-3-yl]-5-fluoro-4-(1H-pyrazol-4-yl)-1H-indazole]	< 0.1 µM	< 0.1 µM	< 0.1 µM	< 0.1 µM	0.1 to 1 µM
c1n[nH]cc1-c1ccc(-c2ccc(N3CC4(CCCNC4)C3)nn2)c2[nH]ncc12 [Compound 218]	> 10 µM	> 10 µM	> 10 µM	> 10 µM	> 10 µM
c1n[nH]cc1-c1ccc(-c2ccc(O[C@@H]3C[C@H]4CCC[C@@H](C3)N4)nn2)c2[nH]ncc12 [Compound 219]	0.1 to 1 µM	0.1 to 1 µM	0.1 to 1 µM	< 0.1 µM	0.1 to 1 µM
CC1(C)CC(Oc2ccc(-c3ccc(-c4cn[nH]c4)c4cn[nH]c34)nn2)CCN1 (stereo not drawn) [Compound 220]	1 to 10 µM	> 10 µM	1 to 10 µM	0.1 to 1 µM	> 10 µM
c1n[nH]cc1-c1ccc(-c2ccc(S[C@@H]3C[C@H]4CC[C@@H](C3)N4)nn2)c2[nH]ncc12 [Compound 221]	> 10 µM	> 10 µM	> 10 µM	> 10 µM	> 10 µM
CN(c1ccc(-c2ccc(-c3cn[nH]c3)c3ncsc23)nn1)C1CCNCC1 [Compound 222, N-methyl-N-(piperidin-4-yl)-6-[4-(1H-pyrazol-4-yl)-1,3-benzothiazol-7-yl]pyridazin-3-amine]	1 to 10 µM	1 to 10 µM	1 to 10 µM	0.1 to 1 µM	1 to 10 µM
[2H]C([2H])([2H])N(c1ccc(-c2ccc(-c3cn[nH]c3)c3ncsc23)nn1)C1CCNCC1 [Compound 223, N-(D3)methyl-N-(piperidin-4-yl)-6-[4-(1H-pyrazol-4-yl)-1,3-benzothiazol-7-yl] pyridazin-3-amine]	1 to 10 µM	1 to 10 µM	1 to 10 µM	0.1 to 1 µM	1 to 10 µM
CCN(c1ccc(-c2ccc(-c3cn[nH]c3)c3ncsc23)nn1)C1CCNCC1 [Compound 224, N-ethyl-N-(piperidin-4-yl)-6-[4-(1H-pyrazol-4-yl)-1,3-benzothiazol-7-yl]pyridazin-3-amine]	> 10 µM	> 10 µM	> 10 µM	1 to 10 µM	> 10 µM
CCN(c1ccc(-c2ccc(-c3cn[nH]c3)c3ncsc23)nn1)C1CC(C)(C)NC(C)(C)C1 [Compound 225, N-ethyl-6-[4-(1H-pyrazol-4-yl)-1,3-benzothiazol-7-yl]-N-(2,2,6,6-tetramethylpiperidin-4-yl)pyridazin-3-amine]	1 to 10 µM	1 to 10 µM	1 to 10 µM	0.1 to 1 µM	1 to 10 µM
CN(c1ccc(-c2ccc(-c3cn[nH]c3)c3ncsc23)nn1)[C@@H]1C[C@H]2CCC[C@@H](C1)N2 [Compound 226]	< 0.1 µM	< 0.1 µM	< 0.1 µM	< 0.1 µM	< 0.1 µM
[2H]C([2H])([2H])N(c1ccc(-c2ccc(-c3cn[nH]c3)c3ncsc23)nn1)[C@@H]1C[C@H]2CCC[C@@H](C1)N2 [Compound 227]	< 0.1 µM	< 0.1 µM	< 0.1 µM	< 0.1 µM	< 0.1 µM
CCN(c1ccc(-c2ccc(-c3cn[nH]c3)c3ncsc23)nn1)[C@@H]1C[C@H]2CCC[C@@H](C1)N2 [Compound 228]	< 0.1 µM	0.1 to 1 µM	< 0.1 µM	< 0.1 µM	< 0.1 µM
c1n[nH]cc1-c1ccc(-c2ccc(N3CC4(CCNCC4)C3)nn2)c2[nH]ncc12 [Compound 229]	1 to 10 µM	1 to 10 µM	1 to 10 µM	1 to 10 µM	1 to 10 µM
c1n[nH]cc1-c1ccc(-c2ccc(OC3CCNCC3)nn2)c2[nH]ncc12 [Compound 230]	> 10 µM	> 10 µM	> 10 µM	1 to 10 µM	> 10 µM
Cn1cc(-c2ccc(-c3ccc(OC4CC(C)(C)NC(C)(C)C4)nn3)c3[nH]ncc23)cn1 [Compound 232, 4-(1-methylpyrazol-4-yl)-7-{6-[(2,2,6,6-tetramethylpiperidin-4-yl)oxy]pyridazin-3-yl}-1H-indazole]	1 to 10 µM	0.1 to 1 µM	1 to 10 µM	0.1 to 1 µM	1 to 10 µM
